The supplement of paper PMC10307832

How the values were obtained:
Experiment in all cases: relative viability (nuclei count vs DMSO), 5 days (fraction); higher = more cells survive
BAY61-3606 + Phenformin = compound: COC1=C(C=C(C=C1)C2=CC3=NC=CN3C(=N2)NC4=C(C=CC=N4)C(=O)N)OC [BAY61-3606] + N=C(N)NC(=N)NCCc1ccccc1 [Phenformin] (partner 250 µM)
Summary of the method: (§1)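 For relative viability, nuclei counts in treated wells were divided by those in vehicle wells. Lung cancer cell lines had been pin-tool dosed in 1536-well plates the day after seeding and cultured for 5 days, then fixed and stained in one step (final 0.05% Triton X-100, 1% formaldehyde, 1 ug/ml Hoechst) and imaged at 4×. Doses were one drug alone or a fixed anchor-drug dose plus five library-drug doses (not always all listed) in √10 steps, and values are duplicate-plate medians.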

Doxorubicin + Pictilisib = compound: COc1cccc2c1C(=O)c1c(O)c3c(c(O)c1C2=O)C[C@@](O)(C(=O)CO)C[C@@H]3O[C@H]1C[C@H](N)[C@H](O)[C@H](C)O1 [Doxorubicin] + CS(=O)(=O)N1CCN(Cc2cc3nc(-c4cccc5[nH]ncc45)nc(N4CCOCC4)c3s2)CC1 [Pictilisib] (partner 1 µM)
Summary of the method: as §1

Doxorubicin + Vorinostat = compound: COc1cccc2c1C(=O)c1c(O)c3c(c(O)c1C2=O)C[C@@](O)(C(=O)CO)C[C@@H]3O[C@H]1C[C@H](N)[C@H](O)[C@H](C)O1 [Doxorubicin] + O=C(CCCCCCC(=O)Nc1ccccc1)NO [Vorinostat] (partner 1 µM)
Summary of the method: as §1

Doxorubicin + Trametinib = compound: COc1cccc2c1C(=O)c1c(O)c3c(c(O)c1C2=O)C[C@@](O)(C(=O)CO)C[C@@H]3O[C@H]1C[C@H](N)[C@H](O)[C@H](C)O1 [Doxorubicin] + CC(=O)Nc1cccc(-n2c(=O)n(C3CC3)c(=O)c3c(Nc4ccc(I)cc4F)n(C)c(=O)c(C)c32)c1 [Trametinib] (partner 0.02 µM)
Summary of the method: as §1

Cell Line | relative viability (BAY61-3606 + Phenformin; first compound 0.02 µM) | relative viability (BAY61-3606 + Phenformin; first compound 0.06325 µM) | relative viability (BAY61-3606 + Phenformin; first compound 0.2 µM) | relative viability (BAY61-3606 + Phenformin; first compound 0.6325 µM) | relative viability (BAY61-3606 + Phenformin; first compound 2 µM) | relative viability (Doxorubicin + Pictilisib; first compound 0.001 µM) | relative viability (Doxorubicin + Pictilisib; first compound 0.003162 µM) | relative viability (Doxorubicin + Pictilisib; first compound 0.01 µM) | relative viability (Doxorubicin + Pictilisib; first compound 0.03162 µM) | relative viability (Doxorubicin + Pictilisib; first compound 0.1 µM) | relative viability (Doxorubicin + Vorinostat; first compound 0.001 µM) | relative viability (Doxorubicin + Vorinostat; first compound 0.003162 µM) | relative viability (Doxorubicin + Vorinostat; first compound 0.01 µM) | relative viability (Doxorubicin + Vorinostat; first compound 0.03162 µM) | relative viability (Doxorubicin + Vorinostat; first compound 0.1 µM) | relative viability (Doxorubicin + Trametinib; first compound 0.001 µM) | relative viability (Doxorubicin + Trametinib; first compound 0.003162 µM) | relative viability (Doxorubicin + Trametinib; first compound 0.01 µM) | relative viability (Doxorubicin + Trametinib; first compound 0.03162 µM) | relative viability (Doxorubicin + Trametinib; first compound 0.1 µM)
LXF-289 | 0.494 | 0.526 | 0.462 | 0.549 | 0.491 | 0.698 | 0.772 | 0.716 | 0.783 | 0.745 | 0.703 | 0.787 | 0.745 | 0.805 | 0.744 | 0.666 | 0.697 | 0.675 | 0.723 | 0.738
NCI-H838 | 0.628 | 0.489 | 0.621 | 0.388 | 0.277 | 0.394 | 0.424 | 0.387 | 0.227 | 0.182 | 0.783 | 0.737 | 0.714 | 0.544 | 0.435 | 0.515 | 0.612 | 0.536 | 0.294 | 0.239
HCC-827 | 0.392 | 0.435 | 0.389 | 0.358 | 0.347 | 0.851 | 1.01 | 0.985 | 0.993 | 0.935 | 0.559 | 0.854 | 0.856 | 0.774 | 0.641 | 0.549 | 0.526 | 0.533 | 0.509 | 0.486
NCI-H460 | 0.549 | 0.48 | 0.494 | 0.493 | 0.106 | 0.246 | 0.393 | 0.392 | 0.309 | 0.249 | 0.654 | 0.639 | 0.492 | 0.063 | 0.0329 | 0.138 | 0.0856 | 0.0422 | 0.0236 | 0.0041
NCI-H3122 | 0.418 | 0.308 | 0.386 | 0.42 | 0.384 | 0.507 | 0.62 | 0.566 | 0.527 | 0.611 | 0.839 | 0.982 | 0.853 | 0.907 | 0.998 | 0.201 | 0.223 | 0.229 | 0.185 | 0.264
NCI-H2347 | 0.563 | 0.359 | 0.544 | 0.455 | 0.538 | 0.563 | 0.598 | 0.803 | 0.615 | 0.635 | 0.588 | 0.539 | 0.45 | 0.49 | 0.476 | 0.197 | 0.297 | 0.284 | 0.281 | 0.283
NCI-H1650 | 0.506 | 0.351 | 0.48 | 0.378 | 0.224 | 0.29 | 0.371 | 0.241 | 0.159 | 0.119 | 0.52 | 0.625 | 0.417 | 0.181 | 0.16 | 0.56 | 0.532 | 0.433 | 0.218 | 0.144
NCI-H1944 | 0.211 | 0.196 | 0.193 | 0.201 | 0.182 | 0.327 | 0.346 | 0.381 | 0.345 | 0.347 | 0.554 | 0.632 | 0.541 | 0.416 | 0.497 | 0.398 | 0.422 | 0.385 | 0.399 | 0.449
EKVX | 0.239 | 0.228 | 0.221 | 0.222 | 0.234 | 0.453 | 0.444 | 0.399 | 0.434 | 0.429 | 0.764 | 0.889 | 0.762 | 0.724 | 0.794 | 0.384 | 0.317 | 0.368 | 0.39 | 0.361
NCI-H1355 | 0.484 | 0.368 | 0.406 | 0.448 | 0.41 | 0.179 | 0.565 | 0.465 | 0.412 | 0.44 | 0.604 | 0.602 | 0.631 | 0.599 | 0.625 | 0.457 | 0.45 | 0.472 | 0.43 | 0.462
NCI-H2228 | 0.37 | 0.294 | 0.368 | 0.276 | 0.26 | 0.154 | 0.272 | 0.295 | 0.153 | 0.117 | 0.759 | 0.43 | 0.46 | 0.374 | 0.518 | 0.178 | 0.533 | 0.411 | 0.356 | 0.165
NCI-H596 | 0.803 | 0.806 | 0.793 | 0.793 | 0.737 | 0.353 | 0.436 | 0.41 | 0.44 | 0.379 | 0.533 | 0.594 | 0.641 | 0.605 | 0.632 | 0.733 | 0.896 | 0.661 | 0.659 | 0.671
SK-MES-1 | 0.729 | 0.586 | 0.633 | 0.685 | 0.57 | 0.368 | 0.395 | 0.362 | 0.342 | 0.204 | 1.04 | 1.15 | 0.996 | 0.251 | 0.233 | 0.563 | 0.572 | 0.513 | 0.283 | 0.192
EPLC-272H | 0.254 | 0.294 | 0.312 | 0.303 | 0.228 | 0.308 | 0.288 | 0.354 | 0.33 | 0.336 | 0.364 | 0.501 | 0.381 | 0.345 | 0.345 | 0.278 | 0.288 | 0.28 | 0.289 | 0.295
HCC-366 | 0.642 | 0.512 | 0.613 | 0.565 | 0.504 | 0.155 | 0.182 | 0.119 | 0.162 | 0.162 | 0.279 | 0.403 | 0.306 | 0.211 | 0.122 | 0.334 | 0.363 | 0.353 | 0.227 | 0.325
